Patent US20260285909A1, “PEPTIDES FOR ANTIMICROBIAL THERAPY” (Karl-Franzens-Universität Graz, priority 2023, published 2026)

Legend:
[1] = tested on: B. subtilis 168 trpC2; assay: Antimicrobial activity (LC99.9), killing in PBS with plating; assay type: cell-based, Bacillus subtilis; settings: Gram-positive bacteria, lowest peptide concentration that killed ≥99.9% of bacteria, 37° C.
Procedure: (§1) In the context of the present invention, the test whether a peptide has an antimicrobial activity which is higher than the antimicrobial activity of peptide OP-145 (acetyl-[…]-amide (SEQ ID NO: 50)) may be performed according to any method known in the art, as for instance disclosed in Balouiri et al, 2016. In particular, S. aureus JAR060131, Enterococcus hirae ATCC 10541, Bacillus subitlis 168C trpC2 or Escherichia coli ATCC25992 are cultured to mid-logarithmic phase in tryptic soy broth, brain heart infusion (BHIB), mueller hinton (MHB) or luria broth (LB) and washed once with PBS. […] Thereafter, the number of viable bacteria is determined by plating on diagnostic sensitivity agar. Antimicrobial activity is expressed as the 99.9% killing concentration (LC99.9), i.e., the lowest peptide concentration that killed ≥99.9% of bacteria. […]
(§2) Antimicrobial activity: S. aureus JAR060131, Enterococcus hirae ATCC 10541, Bacillus subitlis 168C trpC2, Escherichia coli ATCC25992 or their variants were cultured to mid-logarithmic phase in tryptic soy broth, brain heart infusion (BHIB), mueller hinton (MHB) or luria broth (LB) and washed once with PBS. […] Thereafter, the number of viable bacteria was determined by plating on diagnostic sensitivity agar. Antimicrobial activity is expressed as the 99.9% killing concentration (LC99.9), i.e., the lowest peptide concentration that killed ≥99.9% of bacteria.

[2] = tested on: E. coli ATCC25992; assay: as above; assay type: cell-based, Escherichia coli; settings: Gram-negative bacteria, lowest peptide concentration that killed ≥99.9% of bacteria, 37° C.
Procedure: as §1, §2

[3] = tested on: Gram-negative and Gram-positive bacteria; assay: Antimicrobial activity, overall statement; assay type: cell-based; settings: against both Gram-negative and Gram-positive bacteria
Procedure: (§3) Antimicrobial activity: S. aureus JAR060131, Enterococcus hirae ATCC 10541, Bacillus subitlis 168C trpC2, Escherichia coli ATCC25992 or their variants were cultured to mid-logarithmic phase in tryptic soy broth, brain heart infusion (BHIB), mueller hinton (MHB) or luria broth (LB) and washed once with PBS. Approximately 1×10^6 CFU/ml of PBS were incubated with peptide (final concentrations: 0-102.4 μM) for 0-2 h at 37° C. under shaking conditions. Thereafter, the number of viable bacteria was determined by plating on diagnostic sensitivity agar. Antimicrobial activity is expressed as the 99.9% killing concentration (LC99.9), i.e., the lowest peptide concentration that killed ≥99.9% of bacteria.

[4] = tested on: human erythrocytes; assay: Hemolysis assay; assay type: cell-based
Procedure: In the context of the present invention, the test whether a peptide has a hemolytic activity which is lower than the hemolytic activity of peptide OP-145 (acetyl-[…]-amide (SEQ ID NO: 50)) may be performed according to any method known in the art, as for instance disclosed in Avrahami & Shai, 2004. In particular, a 0.5% erythrocyte solution in phosphate-buffered saline is exposed to the respective peptide (e.g. at 1 μM or 10 μM or 20 μM or 50 μM) at 37° C. for 1 h; hemolysis is determined by measuring optical density of the cell supernatants at 415 nm. More specifically, the assay may be performed as follows: Whole venous blood of healthy volunteers is collected in citrate tubes. Erythrocytes are isolated by centrifuging the blood for 10 min at 2,000×g and subsequently washing twice in PBS. […] After 1 h at 37° C. under static conditions, the erythrocyte suspensions are centrifuged and the optical density of the supernatants is determined at 415 nm. The percentage of hemolysis may be calculated relative to a positive control (e.g. 1% Triton X-100).
Hemolysis assay: Whole venous blood of healthy volunteers was collected in citrate tubes. […] After 1 h at 37° C. under static conditions, the erythrocyte suspensions were centrifuged and the optical density of the supernatants was determined at 415 nm. The percentage of hemolysis was calculated relative to the positive control (1% Triton X-100).

[5] = tested on: multi-resistant clinical isolates; assay: Bactericidal activity against multi-resistant clinical isolates (FIG. 4); assay type: cell-based; settings: 1 h treatment with peptides in presence of PBS
Procedure: Bactericidal activity was tested (for 1 h treatment with peptides) in presence of PBS according to de Breij et al., 2018. Bactericidal activity is expressed as LC99.9%—is the lethal concentration causing death in 99.9% cells. Results are ranges of at least three independent experiments. If no range is given, then LC99.9 values were identical in all experiments.
as §3

Sequence	LC99.9% [1] [µM]	LC99.9% [2] [µM]	antimicrobial activity compared to OP-145I12K [3]	lysis of human erythrocytes [4]	antimicrobial (bactericidal) activity against multi-resistant clinical isolates [5]
IGKEFKRIVERKWRFLRELVRPLR [SEQ ID NO: 2]	3.2	6.4	improved antimicrobial activity	did not lyse the human erythrocytes	–
IGKKFKRIVRRKKRFLRKLVRPLR [SEQ ID NO: 3]	3.2	3.2	improved antimicrobial activity	did not lyse the human erythrocytes	Excellent antimicrobial activity
